# Source: US6358885B1, “Substituted phenylheterocyclic herbicides” (Mississippi State University, priority 1992, dated 2002)
# Assays:
# purple nutsedge = assay: Test B preemergence/postemergence greenhouse plant response rating 0 to 10; type: in vivo, Cyperus rotundus; conditions: 0 to 10 scale
# Method in brief: (§1)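 Test chemicals, dissolved in a non-phytotoxic solvent, were applied to soil at planting and, at the same time, over foliage of seedlings at the one to four leaf stage.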
# chickweed = assay: Test C preemergence/postemergence greenhouse plant response rating 0 to 100; type: in vivo, Stellaria media; conditions: POSTEMERGENCE; for Plant response rating, Chickweed: 0 to 100 scale
# Method in brief: (§2)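 Compounds in non-phytotoxic solvent went onto sandy loam before emergence (seeded one day earlier) or onto plants at the one-to-four leaf stage. Duck salad was treated via flood water (~2.5 cm, maintained) over silt loam.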
# lambsquarters = assay: Test B preemergence/postemergence greenhouse plant response rating 0 to 10; type: in vivo, Chenopodium album; conditions: 0 to 10 scale
# Method in brief: as §1
# downy brome = assay: Test C preemergence/postemergence greenhouse plant response rating 0 to 100; type: in vivo, Bromus tectorum; conditions: POSTEMERGENCE; for Plant response rating Downy Brome: 0 to 100 scale
# Method in brief: as §2
# barnyardgrass [1] = assay: Test C flood test plant response rating 0 to 100; type: in vivo, Echinochloa crus-galli; conditions: for Plant response rating (0 to 100), Barnyardgrass: under POSTEMERGENCE head (flood test species); for Plant response rating, Barnyardgrass: flood test species listed under POSTEMERGENCE, 0 to 100 scale
# Method in brief: (§3)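 Compounds in non-phytotoxic solvent applied preemergence to sandy loam one day after planting, postemergence at the 1–4 leaf stage, or to ~2.5 cm floodwater over silt loam.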
# giant foxtail [2] = assay: Test B preemergence/postemergence greenhouse plant response rating 0 to 10; type: in vivo, Setaria faberii; conditions: 0 to 10 scale
# Method in brief: as §1
# barnyardgrass [3] = assay: as above; type: in vivo, Echinochloa crus-galli; conditions: 0 to 10 scale
# Method in brief: as §1
# giant foxtail [4] = assay: Test C preemergence/postemergence greenhouse plant response rating 0 to 100; type: in vivo, Setaria faberii; conditions: POSTEMERGENCE; for Plant response rating, Giant foxtail: 0 to 100 scale
# Method in brief: as §2
# wild oat [5] = assay: Test B preemergence/postemergence greenhouse plant response rating 0 to 10; type: in vivo, Avena fatua; conditions: 0 to 10 scale
# Method in brief: as §1
# cotton = assay: Test C preemergence/postemergence greenhouse plant response rating 0 to 100; type: in vivo, Gossypium hirsutum; conditions: POSTEMERGENCE; for Plant response rating, Cotton: 0 to 100 scale
# Method in brief: as §2
# crabgrass = assay: Test B preemergence/postemergence greenhouse plant response rating 0 to 10; type: in vivo, Digitaria spp.; conditions: 0 to 10 scale
# Method in brief: as §1
# umbrella sedge = assay: Test C flood test plant response rating 0 to 100; type: in vivo, Cyperus difformis; conditions: for Plant response rating (0 to 100), Umbrella sedge: under POSTEMERGENCE head (flood test species); for Plant response rating Umbrella sedge: flood test species listed under POSTEMERGENCE, 0 to 100 scale
# Method in brief: as §3
# rape = assay: Test C preemergence/postemergence greenhouse plant response rating 0 to 100; type: in vivo, Brassica napus; conditions: POSTEMERGENCE; for Plant response rating, Rape: 0 to 100 scale
# Method in brief: as §2
# wild buckwheat = assay: Test B preemergence/postemergence greenhouse plant response rating 0 to 10; type: in vivo, Polygonum convolvulus; conditions: 0 to 10 scale
# Method in brief: as §1
# wild oat [6] = assay: Test C preemergence/postemergence greenhouse plant response rating 0 to 100; type: in vivo, Avena fatua; conditions: POSTEMERGENCE; for Plant response rating, Wild oat: 0 to 100 scale
# Method in brief: as §2
# soybean = assay: as above; type: in vivo, Glycine max; conditions: POSTEMERGENCE; for Plant response rating, Soybean: 0 to 100 scale
# Method in brief: as §2
# cocklebur = assay: Test B preemergence/postemergence greenhouse plant response rating 0 to 10; type: in vivo, Xanthium pensylvanicum; conditions: 0 to 10 scale
# Method in brief: as §1
# rice = assay: Test C flood test plant response rating 0 to 100; type: in vivo, Oryza sativa; conditions: for Plant response rating (0 to 100), Rice Japonica: under POSTEMERGENCE head (flood test species); for Plant response rating Rice Japonica: flood test species listed under POSTEMERGENCE, 0 to 100 scale
# Method in brief: as §3
smiles,measurement,setting,value
C=CCN1C(=O)COc2cc(F)c(-c3nn4c(c3Br)CCCC4)cc21 [Compound 41],"Plant response rating, Nutsedge","purple nutsedge; POSTEMERGENCE, Rate 50 g/ha",4
same,"Plant response rating, Nutsedge","purple nutsedge; PREEMERGENCE, Rate 50 g/ha",0
same,"Plant response rating, Nutsedge","purple nutsedge; Rate 200 g/ha, POSTEMERGENCE",4
same,"Plant response rating, Nutsedge","purple nutsedge; Rate 200 g/ha, PREEMERGENCE",0
same,"Plant response rating, Chickweed",chickweed; 62 g/ha,100
same,"Plant response rating, Chickweed",chickweed; 125 g/ha,100
same,"Plant response rating (0 to 100), Chickweed",chickweed; Rate 16 g/ha,90
same,"Plant response rating (0 to 100), Chickweed",chickweed; Rate 31 g/ha,90
same,"Plant response rating, Lambsquarter","lambsquarters; POSTEMERGENCE, Rate 50 g/ha",10
same,"Plant response rating, Lambsquarter","lambsquarters; PREEMERGENCE, Rate 50 g/ha",10
same,"Plant response rating, Lambsquarter","lambsquarters; Rate 200 g/ha, POSTEMERGENCE",10
same,"Plant response rating, Lambsquarter","lambsquarters; Rate 200 g/ha, PREEMERGENCE",10
same,Plant response rating Downy Brome,downy brome; 62 g/ha,50
same,Plant response rating Downy Brome,downy brome; 125 g/ha,60
same,"Plant response rating (0 to 100), Downy Brome",downy brome; Rate 16 g/ha,30
same,"Plant response rating (0 to 100), Downy Brome",downy brome; Rate 31 g/ha,40
same,"Plant response rating (0 to 100), Barnyardgrass",barnyardgrass [1]; Rate 16 g/ha,90
same,"Plant response rating (0 to 100), Barnyardgrass",barnyardgrass [1]; Rate 31 g/ha,100
same,"Plant response rating, Barnyardgrass",barnyardgrass [1]; 62 g/ha,100
same,"Plant response rating, Barnyardgrass",barnyardgrass [1]; 125 g/ha,100
same,"Plant response rating, Giant foxtail","giant foxtail [2]; POSTEMERGENCE, Rate 50 g/ha",4
same,"Plant response rating, Giant foxtail","giant foxtail [2]; PREEMERGENCE, Rate 50 g/ha",1
same,"Plant response rating, Giant foxtail","giant foxtail [2]; Rate 200 g/ha, POSTEMERGENCE",5
same,"Plant response rating, Giant foxtail","giant foxtail [2]; Rate 200 g/ha, PREEMERGENCE",3
same,"Plant response rating, Barnyardgrass","barnyardgrass [3]; POSTEMERGENCE, Rate 50 g/ha",3
same,"Plant response rating, Barnyardgrass","barnyardgrass [3]; POSTEMERGENCE, Rate 200 g/ha",6
same,"Plant response rating, Barnyardgrass","barnyardgrass [3]; PREEMERGENCE, Rate 50 g/ha",4
same,"Plant response rating, Barnyardgrass","barnyardgrass [3]; Rate 200 g/ha, PREEMERGENCE",6
same,"Plant response rating, Giant foxtail",giant foxtail [4]; 62 g/ha,30
same,"Plant response rating, Giant foxtail",giant foxtail [4]; 125 g/ha,50
same,"Plant response rating (0 to 100), Giant foxtail",giant foxtail [4]; Rate 16 g/ha,20
same,"Plant response rating (0 to 100), Giant foxtail",giant foxtail [4]; Rate 31 g/ha,30
same,"Plant response rating, Wild oat","wild oat [5]; POSTEMERGENCE, Rate 50 g/ha",3
same,"Plant response rating, Wild oat","wild oat [5]; PREEMERGENCE, Rate 50 g/ha",2
same,"Plant response rating, Wild oat","wild oat [5]; Rate 200 g/ha, POSTEMERGENCE",4
same,"Plant response rating, Cotton",cotton; 62 g/ha,100
same,"Plant response rating, Cotton",cotton; 125 g/ha,100
same,"Plant response rating (0 to 100), Cotton",cotton; Rate 16 g/ha,100
same,"Plant response rating (0 to 100), Cotton",cotton; Rate 31 g/ha,100
same,"Plant response rating, Crabgrass","crabgrass; POSTEMERGENCE, Rate 50 g/ha",3
same,"Plant response rating, Crabgrass","crabgrass; POSTEMERGENCE, Rate 200 g/ha",5
same,"Plant response rating, Crabgrass","crabgrass; PREEMERGENCE, Rate 50 g/ha",0
same,"Plant response rating, Crabgrass","crabgrass; Rate 200 g/ha, PREEMERGENCE",6
same,"Plant response rating (0 to 100), Umbrella sedge",umbrella sedge; Rate 16 g/ha,60
same,"Plant response rating (0 to 100), Umbrella sedge",umbrella sedge; Rate 31 g/ha,60
same,Plant response rating Umbrella sedge,umbrella sedge; 62 g/ha,80
same,Plant response rating Umbrella sedge,umbrella sedge; 125 g/ha,90
same,"Plant response rating, Rape",rape; 62 g/ha,100
same,"Plant response rating, Rape",rape; 125 g/ha,100
same,"Plant response rating (0 to 100), Rape",rape; Rate 16 g/ha,95
same,"Plant response rating (0 to 100), Rape",rape; Rate 31 g/ha,100
same,"Plant response rating, Wild buckwheat","wild buckwheat; POSTEMERGENCE, Rate 50 g/ha",10
same,"Plant response rating, Wild buckwheat","wild buckwheat; PREEMERGENCE, Rate 50 g/ha",10
same,"Plant response rating, Wild buckwheat","wild buckwheat; Rate 200 g/ha, POSTEMERGENCE",10
same,"Plant response rating, Wild buckwheat","wild buckwheat; Rate 200 g/ha, PREEMERGENCE",10
same,"Plant response rating, Wild oat",wild oat [6]; 62 g/ha,40
same,"Plant response rating, Wild oat",wild oat [6]; 125 g/ha,50
same,"Plant response rating (0 to 100), Wild oat",wild oat [6]; Rate 16 g/ha,20
same,"Plant response rating (0 to 100), Wild oat",wild oat [6]; Rate 31 g/ha,30
same,"Plant response rating, Soybean",soybean; 62 g/ha,70
same,"Plant response rating, Soybean",soybean; 125 g/ha,100
same,"Plant response rating (0 to 100), Soybean",soybean; Rate 16 g/ha,60
same,"Plant response rating (0 to 100), Soybean",soybean; Rate 31 g/ha,70
same,"Plant response rating, Cocklebur","cocklebur; POSTEMERGENCE, Rate 50 g/ha",10
same,"Plant response rating, Cocklebur","cocklebur; POSTEMERGENCE, Rate 200 g/ha",10
same,"Plant response rating, Cocklebur","cocklebur; PREEMERGENCE, Rate 50 g/ha",2
same,"Plant response rating, Cocklebur","cocklebur; Rate 200 g/ha, PREEMERGENCE",5
same,"Plant response rating (0 to 100), Rice Japonica",rice; Rate 16 g/ha,45
same,"Plant response rating (0 to 100), Rice Japonica",rice; Rate 31 g/ha,65
same,Plant response rating Rice Japonica,rice; 62 g/ha,80
same,Plant response rating Rice Japonica,rice; 125 g/ha,85
